Columns and labels:
[1] = Cytotoxicity assay, Huh-7 cells, Cell Titer Glo, 5 days; assay type: cell-based, human; conditions: human, Huh-7 cells; Huh-7, five days incubation, intracellular ATP; read-out: CC50 HUH7 CTG 5D
From the text: (§1) To assess potential off-target toxicity of certain compounds disclosed herein, the in vitro cytotoxicity of those compounds was profiled using a panel of 5 cell lines with various tissue origins. Compound cytotoxicity was examined in hepatoma-derived Huh-7 and HepG2 cells, prostate carcinoma-derived PC-3 cells, lymphoma derived MT-4 cells and a normal diploid lung cell line MRC-5. HepG2 and PC-3 cells used were adapted to grow in glucose-free galactose-containing medium. These cells have a relatively higher sensitivity to inhibitors of mitochondrial oxidative phosphorylation compared to the same cells maintained in standard glucose-containing culture medium (Marroquin et al., Toxicol. Sci. 2007; 97 (2):539-47). Cell viability was determined by measuring intracellular ATP levels following five days of continuous incubation with test compounds.
(§2) The human hepatoma Huh-7 cell line was obtained from ReBLikon GmbH (Mainz, Germany) {20879}. The MT-4 cell line (HTLV-1 transformed, human T lymphoblastoid cells) was obtained from the NIH AIDS Reagent program (Bathesda, MD). The human hepatoblastoma cell line HepG2, human prostate carcinoma cell line PC-3, and normal fetal lung derived MRC-5 cells were obtained from the American Type Culture Collection (ATCC, Manassas, VA).
(§3) Huh-7 cells were maintained in Dulbecco's Modified Eagle Medium (DMEM) supplemented with 10% fetal bovine serum (FBS, Hyclone, Logan, UT), 1% non-essential amino acids (Gibco, Carlsbad, CA). PC-3 and HepG2 cells were adapted to grow in 0.2% galactose-containing, glucose-free Dulbecco's Modified Eagle Medium (DMEM) supplemented with 10% fetal bovine serum (FBS, Hyclone, Logan, UT), 1% non-essential amino acids (Gibco, Carlsbad, CA), 1% Pyruvate (Cellgro), 1% Glutamax (Invitrogen, Carlsbad, CA). Galactose-adapted cells were maintained in the same culture medium. MRC-5 cells were maintained in Eagle's Minimum Essential Medium (EMEM) supplemented with 10% fetal bovine serum (FBS, Hyclone, Logan, UT). MT-4 cells were maintained in RPMI-1640 supplemented with 10% fetal bovine serum (FBS, Hyclone, Logan, UT). All cell culture media were also supplemented with 100 Units/mL penicillin, 100 μg/mL streptomycin (Gibco).
(§4) Using a Biotek uFlow Workstation (Biotek, Winooski, VT), 1500 HepG2, 1500 PC-3, 500 Huh7 or 1500 MRC-5 cells in 90 μL of culture media were dispensed into each well of black polystyrene tissue culture-treated 384-well plates. Plated cells were incubated for 24 hours in an incubator at 37° C., 5% CO2 and 90% humidity. Compound serial dilutions were performed in 100% DMSO in 384-well polypropylene (high recovery) plates on a Biomek FX Workstation (Beckman Coulter, Fullerton, CA). After 3-fold serial dilutions, 0.4 μL of compounds were transferred into 384-well plates containing cells using a Velocity 11 system equipped with a Bravo 384-well pipettor. The DMSO concentration in the final assay plates was 0.44% (v/v). Cells were incubated with compound(s) for five days at 37° C. Puromycin (44 μM final concentration) and DMSO (0.44%, v/v) were used as a positive and negative controls, respectively
(§5) At the end of the incubation period the cytotoxicity assay was performed as follows: Media from 384-well cell culture plates were aspirated with a Biotek EL405 plate-washer (Biotek) and cells were washed with 100 μL PBS once. Twenty microliters of Cell Titer Glo (Promega, Madison, WI) was added to each well of the plates with a Biotek uFlow liquid dispenser. Plates were incubated for 15 minutes at room temperature before luminescence was measured with a Perkin Elmer Envision Plate Reader (Perkin Elmer, Waltham, MA).
(§6) CC50 values were defined as the compound concentration that caused a 50% decrease in luminescence signal, and were calculated by non-linear regression using Pipeline Pilot software by applying a four parameter fit equation (Accelrys, San Diego, CA). Individual CC50 values are listed as μM concentrations.

[2] = tested on: IFNα; experiment: PBMC cytokine profiling assay, IFNα induction; assay type: cell-based; conditions: PBMC, human PBMCs, 24 hours incubation
Outline: (§7)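 Cryopreserved healthy-donor human PBMCs (100k cells/well) were exposed for 24 h at 37 °C to a 10-point half-log compound series in 0.5% final DMSO. Secreted cytokines in the conditioned medium were quantified by MSD electrochemiluminescence, with TNFα samples diluted 1:9. AC50 was fitted by non-linear regression on percent activation normalised to plate controls.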

[3] = Cytotoxicity assay, MRC-5 cells, Cell Titer Glo, 5 days; assay type: cell-based, human; conditions: human, MRC-5 cells; MRC-5, five days incubation, intracellular ATP; read-out: CC50 MRC5 CTG 5D
From the text: as §1, §2, §3, §4, §5, §6

[4] = Cytotoxicity assay, galactose-adapted HepG2 cells, Cell Titer Glo, 5 days; assay type: cell-based; conditions: human, galactose-adapted HepG2, five days incubation, intracellular ATP, read-out: CC50 GALHEPG2 CTG 5D
From the text: as §1, §2, §3, §4, §5, §6

[5] = tested on: IL12p40; experiment: PBMC cytokine profiling assay, IL12-p40 induction; assay type: cell-based; conditions: PBMC, human PBMCs, 24 hours incubation
Outline: as §7

[6] = tested on: TNFα; experiment: PBMC cytokine profiling assay, TNFα induction; assay type: cell-based; conditions: PBMC, human PBMCs, 24 hours incubation
Outline: as §7

[7] = Cytotoxicity assay, galactose-adapted PC-3 cells, Cell Titer Glo, 5 days; assay type: cell-based; conditions: human, galactose-adapted PC-3, five days incubation, intracellular ATP, read-out: CC50 GALPC3 CTG 5D
From the text: as §1, §2
as §3, with “(Gibco). […]” for “(Gibco).”
as §5, with “Twenty microliters of Cell Titer Glo (Promega, Madison, WI) was added to each well of the plates with a Biotek uFlow liquid dispenser.” left out, “MA). […]” for “MA).”

[8] = MT-4 cytotoxicity assay, Cell Titer Glo, 5 days; assay type: cell-based, human; conditions: human, MT-4 cells; MT-4, five days incubation, intracellular ATP; read-out: CC50 (MT4)
From the text: as §1, §2, §3
(§8) For the MT-4 cytotoxicity assay, 0.4 μL of serially diluted compounds were added to 40 μl of cell maintenance media in 384-well black, solid bottom plate using a Biomek FX workstation (Beckman Coulter). Two thousand cells in 35 μL were added to each well using a Biotek uFlow Workstation (Biotek). Each assay plate contained 10 μM Puromycin (final concentration) and 0.5% DMSO in RPMI-1640 as positive and negative controls, respectively. Assay plates were incubated for five days at 37° C. in an incubator set at 5% CO2 and 90% humidity. After five days, 22 μL of Cell Titer Glo reagent (Promega) was added to the assay plates with a Biotek uFlow Workstation. Plates were subsequently placed on a Perkin Elmer Envision Plate Reader for five minutes before the luminescence signal was read.
as §6

[9] = tested on: Huh-7 cells; experiment: Cytotoxicity assay, Huh-7 cells, Cell Titer Glo, 5 days; assay type: cell-based, human; conditions: Huh-7, five days incubation, intracellular ATP; read-out: CC50 HUH7 CTG 5D
From the text: as §1, §2, §3, §4, §5, §6

[10] = tested on: MRC-5 cells; experiment: Cytotoxicity assay, MRC-5 cells, Cell Titer Glo, 5 days; assay type: cell-based, human; conditions: MRC-5, five days incubation, intracellular ATP; read-out: CC50 MRC5 CTG 5D
From the text: as §1, §2, §3, §4, §5, §6

[11] = tested on: MT-4 cells; experiment: MT-4 cytotoxicity assay, Cell Titer Glo, 5 days; assay type: cell-based, human; conditions: MT-4, five days incubation, intracellular ATP; read-out: CC50 (MT4)
From the text: as §1, §2, §3, §8, §6

Structure (SMILES)	CC50 at 5 days [1]	AC50 ([2]; Homo sapiens, 24 h)	CC50 at 5 days [3]	CC50 at 5 days [4]	AC50 ([5]; Homo sapiens, 24 h)	AC50 ([6]; Homo sapiens, 24 h)	CC50 at 5 days [7]	CC50 at 5 days [8]	CC50 [9]	AC50 [2]	CC50 [10]	AC50 [5]	AC50 [6]	CC50 [11]
CCCC[C@](C)(CO)Nc1nc(N)nc2cccnc12 [Example 59, (R)-2-((2-aminopyrido[3,2-d]pyrimidin-4-yl)amino)-2-methylhexan-1-ol]	35.4 µM	15 µM	40.3 µM	8.88 µM	0.17 µM	0.18 µM	5.2 µM	31.4 µM	–	–	–	–	–	–
CCCC[C@](C)(CNC(C)=O)Nc1nc(N)nc2c(C)ccnc12 [Example 62]	–	–	–	44.4 µM	–	–	–	–	44.4 µM	> 50 µM	44.4 µM	0.91 µM	1 µM	19.2 µM
CCCC[C@H](CO)Nc1nc(N)nc2ccsc12 [Y, reference compound]	2.31 µM	> 50 µM	0.95 µM	0.19 µM	13 µM	11.2 µM	0.18 µM	1.42 µM	–	–	–	–	–	–

Reference: patent publication US12377100B2 (GILEAD SCIENCES, INC., priority 2015, dated 2025)
